Experimental data reported in ChEMBL document CHEMBL4483862, “Open-source discovery of chemical leads for next-generation chemoprotective antimalarials” (2018).

Tested on: Plasmodium berghei
Assay: Luciferase/luciferin-expressing antifolate-resistant parasites were used to infect a culture of HepG2 cells that were pre-incubated with compounds. Infected hepatocytes emit light due to the luciferase reaction. Assay results are presented as the percent inhibition of light emission compared to control. […]
Assay type: functional
Settings: sporozoite; for IC90: read-out: LUCIFERASE INFECTION ASSAY - IC90

Row | Compound | IC90 | other results
1 | Cn1c(N)c(C(=O)COC(=O)C2(c3ccc(Cl)cc3)CCCC2)c(=O)n(C)c1=O | 6.91 µM | IC50 (PBLUC_HILL_SLOPE 2.17, PBLUC_R_SQUARED 0.685, read-out: LUCIFERASE INFECTION ASSAY - IC50): 2.5 µM
2 | Cc1ccc(S(=O)(=O)/N=C2\C=C(NS(=O)(=O)c3ccc(C)cc3)C(=O)c3ccccc32)cc1 | > 10 µM | IC50 (PBLUC_HILL_SLOPE 2.17, PBLUC_R_SQUARED 0.652, read-out: LUCIFERASE INFECTION ASSAY - IC50): 5.51 µM
3 | CCCCC1(Cc2ccccc2)C(=O)c2cccc3c4ccccc4n(c23)C1=O (stereo not drawn) | > 8.65 µM | IC50 (PBLUC_HILL_SLOPE 2.19, PBLUC_R_SQUARED 0.0283, read-out: LUCIFERASE INFECTION ASSAY - IC50): 8.01 µM
4 | CC(=O)Nc1cccc(-c2cn3c(-c4ccc5ncccc5c4)cnc3cn2)c1 | > 8.7 µM | IC50 (PBLUC_HILL_SLOPE 2.19, PBLUC_R_SQUARED 0.526, read-out: LUCIFERASE INFECTION ASSAY - IC50): 5.14 µM
5 | COc1ccc(C)cc1NC(=O)C(OC(=O)c1cccn1C)c1ccccc1 (stereo not drawn) | > 10 µM | IC50 (PBLUC_HILL_SLOPE 2.21, PBLUC_R_SQUARED 0.0841, read-out: LUCIFERASE INFECTION ASSAY - IC50): 8.87 µM
6 | COc1ccc(NC2=NC(=O)/C(=C/c3cc(C)n(-c4cccc(Cl)c4Cl)c3C)S2)cc1 | 0.771 µM | IC50 (PBLUC_HILL_SLOPE 2.19, 1.56, PBLUC_R_SQUARED 0.711, 0.979, read-out: LUCIFERASE INFECTION ASSAY - IC50): 0.238 µM
7 | CC(=O)Nc1ccc(OCC(=O)NC(c2ccc(C)cc2)c2cccs2)cc1 (stereo not drawn) | > 10 µM | IC50 (PBLUC_HILL_SLOPE 2.22, PBLUC_R_SQUARED 0.0478, read-out: LUCIFERASE INFECTION ASSAY - IC50): > 10 µM
8 | COc1ccc(/C=C2\c3ccccc3Cn3c2nc(=O)c2c4c(sc23)CCCC4)cc1 | 8.28 µM | IC50 (PBLUC_HILL_SLOPE 2.2, PBLUC_R_SQUARED 0.219, read-out: LUCIFERASE INFECTION ASSAY - IC50): 3.06 µM
9 | CCCc1oc2c(cc(NS(=O)(=O)c3ccc(Cl)cc3)c3ccccc32)c1C(=O)OCC | > 10 µM | IC50 (PBLUC_HILL_SLOPE 2.19, PBLUC_R_SQUARED 0.549, read-out: LUCIFERASE INFECTION ASSAY - IC50): 5.77 µM
10 | CC1CCc2sc(C(=O)N(C)Cc3nc(=O)c4ccccc4[nH]3)cc2C1 (stereo not drawn) | 6.74 µM | IC50 (PBLUC_HILL_SLOPE 2.24, PBLUC_R_SQUARED 0.489, read-out: LUCIFERASE INFECTION ASSAY - IC50): 2.52 µM
11 | Cc1ccc(C)c(S(=O)(=O)N2CCN(C(=O)c3[nH]nc4ccccc34)CC2)c1 | 1.72 µM | IC50 (PBLUC_HILL_SLOPE 2.18, PBLUC_R_SQUARED 0.737, read-out: LUCIFERASE INFECTION ASSAY - IC50): 0.627 µM
12 | CCOC(=O)NC(=O)/C(C#N)=N/Nc1ccccc1 | 0.557 µM | IC50 (PBLUC_HILL_SLOPE 2.22, PBLUC_R_SQUARED 0.599, read-out: LUCIFERASE INFECTION ASSAY - IC50): 0.207 µM
13 | c1ccc(NCc2ccc(-c3cn4c(-c5cccnc5)cnc4cn3)cc2)cc1 | 7.31 µM | IC50 (PBLUC_HILL_SLOPE 2.17, PBLUC_R_SQUARED 0.86, read-out: LUCIFERASE INFECTION ASSAY - IC50): 2.66 µM
14 | COCCNc1nc2cnc(-c3cccc(Oc4ccccc4)c3)cc2n1C | > 10 µM | IC50 (PBLUC_HILL_SLOPE 2.22, PBLUC_R_SQUARED 0.147, read-out: LUCIFERASE INFECTION ASSAY - IC50): 6.81 µM
15 | CCc1nc2ccccc2c(C(=O)OCC(=O)Nc2ccc(C#N)cc2)c1C | > 10 µM | IC50 (PBLUC_HILL_SLOPE 2.25, PBLUC_R_SQUARED 0.588, read-out: LUCIFERASE INFECTION ASSAY - IC50): 4.96 µM
16 | Cc1cc(NC(=O)C(C)Sc2ncnc3c2oc2ccccc23)no1 (stereo not drawn) | > 10 µM | IC50 (PBLUC_HILL_SLOPE 2.18, PBLUC_R_SQUARED 0.0347, read-out: LUCIFERASE INFECTION ASSAY - IC50): > 10 µM
17 | O=C(COc1ccc(C23CC4CC(CC(C4)C2)C3)cc1)N1CCCC1 | 2.75 µM | IC50 (PBLUC_HILL_SLOPE 2.17, PBLUC_R_SQUARED 0.715, read-out: LUCIFERASE INFECTION ASSAY - IC50): 1 µM
18 | Cc1cc([N+](=O)[O-])cc(S(=O)(=O)N(Cc2ccc(C(=O)NC3CC3)cc2)C2CC2)c1C | 2.18 µM | IC50 (PBLUC_HILL_SLOPE 2.2, PBLUC_R_SQUARED 0.808, read-out: LUCIFERASE INFECTION ASSAY - IC50): 0.801 µM
19 | CC(C)c1cc(NCCCN2CCOCC2)n2ncc(-c3ccccc3)c2n1 | > 8.7 µM | IC50 (PBLUC_HILL_SLOPE 2.21, PBLUC_R_SQUARED 0.515, read-out: LUCIFERASE INFECTION ASSAY - IC50): 4.34 µM
20 | CC(C)c1ccc(NC(=O)[C@@H]2Cc3ccccc3CN2C(=O)OC(C)(C)C)cc1 | > 8.36 µM | IC50 (PBLUC_HILL_SLOPE 2.17, PBLUC_R_SQUARED 0.544, read-out: LUCIFERASE INFECTION ASSAY - IC50): 3.19 µM

Row | Compound | IC90 | other results
21 | Nc1nc(Nc2cc(Cl)cc(Cl)c2)c2[nH]cnc2n1 | 8.62 µM | IC50 (PBLUC_HILL_SLOPE 2.21, PBLUC_R_SQUARED 0.753, read-out: LUCIFERASE INFECTION ASSAY - IC50): 3.18 µM
22 | O=C(c1ccccc1)N1[C@@H]2CC[C@@H](C2)[C@H]1c1nc2cccc(OCc3ccccc3)c2[nH]1 | > 10 µM | IC50 (PBLUC_HILL_SLOPE 2.24, PBLUC_R_SQUARED 0.373, read-out: LUCIFERASE INFECTION ASSAY - IC50): > 10 µM
23 | CN1CCN(c2ccc(-c3cn4c(-c5ccc(CO)cc5)cnc4cn3)cc2)CC1 | > 8.26 µM | IC50 (PBLUC_HILL_SLOPE 2.22, PBLUC_R_SQUARED 0.0391, read-out: LUCIFERASE INFECTION ASSAY - IC50): > 8.26 µM
24 | O=C1NC2(CCOc3ccccc32)C(=O)N1CC(=O)N1N=C(c2ccc(Cl)cc2)CC1c1ccco1 (stereo not drawn) | > 10 µM | IC50 (PBLUC_HILL_SLOPE 2.24, PBLUC_R_SQUARED 0.678, read-out: LUCIFERASE INFECTION ASSAY - IC50): 5.4 µM
25 | CN1CCN(c2ccc(-c3cn4c(-c5ccc6c(c5)OCO6)cnc4cn3)cn2)CC1 | > 7.96 µM | IC50 (PBLUC_HILL_SLOPE 2.2, PBLUC_R_SQUARED 0.54, read-out: LUCIFERASE INFECTION ASSAY - IC50): 6.26 µM
26 | CC(C)CN1C(=O)N(CCCc2cccnc2)C(=O)C12CCN(C(C)CCc1ccccc1)CC2 (stereo not drawn) | > 6.92 µM | IC50 (PBLUC_HILL_SLOPE 2.19, PBLUC_R_SQUARED 0.623, read-out: LUCIFERASE INFECTION ASSAY - IC50): 3.61 µM
27 | CCOc1cc(/C=C/c2nc3cc(Cl)ccc3o2)ccc1OCC(=O)N(C(C)C)C(C)C | > 10 µM | IC50 (PBLUC_HILL_SLOPE 2.25, PBLUC_R_SQUARED 0.0279, read-out: LUCIFERASE INFECTION ASSAY - IC50): > 10 µM
28 | CCCn1c(N)c(C(=O)CN(Cc2ccco2)Cc2cccs2)c(=O)[nH]c1=O | > 10 µM | IC50 (PBLUC_HILL_SLOPE 2.23, PBLUC_R_SQUARED 0.528, read-out: LUCIFERASE INFECTION ASSAY - IC50): 5.46 µM
29 | CNC(=O)c1ccc(CN(C2CC2)S(=O)(=O)c2ccc(C)cc2C)cc1 | 8.11 µM | IC50 (PBLUC_HILL_SLOPE 2.19, PBLUC_R_SQUARED 0.255, read-out: LUCIFERASE INFECTION ASSAY - IC50): 2.97 µM
30 | CC(CN1CCC2(CC1)C(=O)N(Cc1ccccn1)C(=O)N2Cc1ccccc1)c1ccccc1 (stereo not drawn) | > 7.04 µM | IC50 (PBLUC_HILL_SLOPE 2.23, PBLUC_R_SQUARED 0.302, read-out: LUCIFERASE INFECTION ASSAY - IC50): > 7.04 µM
31 | O=C(/C=C/c1cn(Cc2ccccc2)nc1-c1ccccc1)N1CCN(c2ccncc2)CC1 | 6.13 µM | IC50 (PBLUC_HILL_SLOPE 2.17, PBLUC_R_SQUARED 0.608, read-out: LUCIFERASE INFECTION ASSAY - IC50): 2.22 µM
32 | O=C(COc1ccccc1)Nc1nc2ccccn2c1C(=O)NC1CCCC1 | > 8.72 µM | IC50 (PBLUC_HILL_SLOPE 2.22, PBLUC_R_SQUARED 0.0336, read-out: LUCIFERASE INFECTION ASSAY - IC50): 7.18 µM
33 | CCCCNC1=C(NS(=O)(=O)c2ccc(NC(C)=O)cc2)C(=O)c2ccccc2C1=O | > 10 µM | IC50 (PBLUC_HILL_SLOPE 2.17, PBLUC_R_SQUARED 0.634, read-out: LUCIFERASE INFECTION ASSAY - IC50): 3.66 µM
34 | C=CCNC(=O)NC(=O)COC(=O)c1c2c(nc3ccccc13)/C(=C/c1cccs1)CCC2 | > 10 µM | IC50 (PBLUC_HILL_SLOPE 2.17, PBLUC_R_SQUARED 0.466, read-out: LUCIFERASE INFECTION ASSAY - IC50): 7.2 µM
35 | COc1ccc2c(-c3ccccc3)cc(SCc3nnc(C)o3)nc2c1 | > 10 µM | IC50 (PBLUC_HILL_SLOPE 2.18, PBLUC_R_SQUARED 0.122, read-out: LUCIFERASE INFECTION ASSAY - IC50): 6.06 µM
36 | c1ccc(Oc2cccc(-c3ccc4nnc(-c5ccc6nccnc6c5)n4c3)c2)cc1 | > 10 µM | IC50 (PBLUC_HILL_SLOPE 2.21, PBLUC_R_SQUARED 0.734, read-out: LUCIFERASE INFECTION ASSAY - IC50): 4.56 µM
37 | Cc1cc(C(=O)CN2CCN(C)CC2)c(C)n1C(c1ccccc1)c1ccccc1 | > 10 µM | IC50 (PBLUC_HILL_SLOPE 2.18, PBLUC_R_SQUARED 0.339, read-out: LUCIFERASE INFECTION ASSAY - IC50): 6.77 µM
38 | C=CCn1c[n+](C2=C(NS(=O)(=O)c3ccc(C)cc3)C(=O)c3ccccc3C2=O)c2ccccc21 | 1.26 µM | IC50 (PBLUC_HILL_SLOPE 2.18, PBLUC_R_SQUARED 0.79, read-out: LUCIFERASE INFECTION ASSAY - IC50): 0.462 µM
39 | CCCCN1C(=O)C(=O)c2cc(Br)cc(C)c21 | > 10 µM | IC50 (PBLUC_HILL_SLOPE 2.24, PBLUC_R_SQUARED 0.667, read-out: LUCIFERASE INFECTION ASSAY - IC50): 4.61 µM
